Measurements from patent publication US20230060425A1, “FUSED BICYCLIC HETEROCYCLE DERIVATIVES AS PESTICIDES” (Bayer Aktiengesellschaft, priority 2019, published 2023).
Read-outs that look alike come from different tables or passages of the source.

Columns and labels:
Format in all cases: in vivo
[1] = tested on: Ctenocephalides felis; experiment: Ctenocephalides felis in vitro contact test with adult cat fleas; details: application rate 5 μg/cm^2 (=500 g/ha); after 48 h; fleas dead or moribund
Description: Ctenocephalides felis—In Vitro Contact Tests with Adult Cat Fleas
(§1) For the coating of the test tubes, 9 mg of active compound are first dissolved in 1 ml of acetone p.a. and then diluted to the desired concentration with acetone p.a. 250 μl of the solution are distributed homogeneously on the inner walls and the base of a 25 ml glass tube by turning and rocking on an orbital shaker (rocking rotation at 30 rpm for 2 h). With 900 ppm of active compound solution and internal surface area 44.7 cm^2, given homogeneous distribution, an area-based dose of 5 μg/cm^2 is achieved.
After the solvent has evaporated off, the tubes are populated with 5-10 adult cat fleas (Ctenocephalides felis), sealed with a perforated plastic lid and incubated in a horizontal position at room temperature and ambient humidity. After 48 h, efficacy is determined. To this end, the tubes are stood upright and the fleas are knocked to the base of the tube. Fleas which remain motionless at the base or move in an uncoordinated manner are considered to be dead or moribund.
100% efficacy means that all the fleas were dead or moribund. 0% efficacy means that no fleas were harmed.

[2] = tested on: Ctenocephalides felis; experiment: Ctenocephalides felis oral test; details: 48 h, application rate 100 ppm, in citrated cattle blood, after 2 days, read-out: efficacy (kill in %)
Description: Ctenocephalides felis—Oral Test
(§2) Solvent: Dimethyl sulfoxide
To produce a suitable active compound formulation, 10 mg of active compound are mixed with 0.5 ml of dimethyl sulfoxide. Dilution with citrated cattle blood gives the desired concentration.
About 20 unfed adult cat fleas (Ctenocephalides felis) are placed into a chamber which is closed at the top and bottom with gauze. A metal cylinder whose bottom end is closed with parafilm is placed onto the chamber. The cylinder contains the blood/active compound formulation, which can be imbibed by the fleas through the parafilm membrane.
After 2 days, the kill in % is determined. 100% means that all of the fleas have been killed; 0% means that none of the fleas have been killed.

[3] = tested on: Diabrotica balteata; experiment: Diabrotica balteata spray test; details: 168 h, application rate 160 μg/cavity (μg/well), wheat grains, after 7 days, read-out: efficacy
Description: Diabrotica balteata—Spray Test
(§3) Solvent: • 78 parts by weight of acetone • 1.5 parts by weight of dimethylformamide
(§4) Emulsifier: alkylaryl polyglycol ether
(§5) To produce a suitable active compound preparation, 1 part by weight of active compound is dissolved using the stated parts by weight of solvent and made up with water containing an emulsifier concentration of 1000 ppm until the desired concentration is attained. To produce further test concentrations, the formulation is diluted with emulsifier-containing water.
Pre-swollen wheat grains (Triticum aestivum) are incubated in a multiwell plate filled with agar and a little water for one day (5 seed grains per well). The germinated wheat grains are sprayed with an active compound preparation of the desired concentration. Subsequently, each cavity is infected with 10-20 beetle larvae of Diabrotica balteata.
After 7 days, the efficacy in % is determined. 100% means that all wheat plants have grown as in the untreated, uninfected control; 0% means that no wheat plant has grown.

[4] = tested on: Meloidogyne incognita; experiment: Meloidogyne incognita test; details: 336 h, application rate 20 ppm, lettuce, after 14 days, formation of galls, read-out: nematicidal efficacy
Description: Meloidouyne incognita Test
Solvent: 125.0 parts by weight of acetone
To produce a suitable active compound formulation, 1 part by weight of active compound is mixed with the stated amount of solvent and the concentrate is diluted to the desired concentration with water.
Vessels are filled with sand, active compound solution, an egg/larvae suspension of the southern root-knot nematode (Meloidogyne incognita) and lettuce seeds. The lettuce seeds germinate and the plants develop. The galls develop on the roots.
After 14 days, the nematicidal efficacy in % is determined by the formation of galls. 100% means that no galls were found; 0% means that the number of galls on the treated plants corresponds to the untreated control.

[5] = tested on: Myzus persicae; experiment: Myzus persicae oral test; details: 120 h, application rate 4 ppm, after 5 days, read-out: efficacy
Description: Solvent: 100 parts by weight of acetone
To produce a suitable preparation of active compound, 1 part by weight of active compound is dissolved using the specified parts by weight of solvent and made up with water until the desired concentration is attained.
50 μl of the active compound preparation are transferred into microtitre plates and made up to a final volume of 200 μl with 150 μl of IPL41 insect medium (33%+15% sugar). Subsequently, the plates are sealed with parafilm, which a mixed population of green peach aphids (Myzus persicae) within a second microtitre plate is able to puncture and imbibe the solution through it.
(§6) After 5 days, the efficacy in % is determined. 100% means that all the aphids have been killed; 0% means that no aphids have been killed.

[6] = tested on: Spodoptera frugiperda; experiment: Spodoptera frugiperda spray test; details: foliar, 168 h, application rate 100 g/ha, maize leaf discs, after 7 days, read-out: efficacy
Description: Spodoptera frugiperda—Spray Test
(§7) Solvent: • 78.0 parts by weight of acetone • 1.5 parts by weight of dimethylformamide
as §4
To produce further test concentrations, the formulation is diluted with emulsifier-containing water.
After 7 days, the efficacy in % is determined. 100% means that all the caterpillars have been killed; 0% means that no caterpillar has been killed.

[7] = tested on: Rhipicephalus sanguineus; experiment: Rhipicephalus sanguineus in vitro contact test with adult brown dog ticks; details: application rate 5 μg/cm^2; after 48 h; ticks dead or moribund
Description: Rhipicephalus sanguineus—In Vitro Contact Tests with Adult Brown Dog Ticks
as §1
After the solvent has evaporated off, the tubes are populated with 5-10 adult dog ticks (Rhipicephalus sanguineus), sealed with a perforated plastic lid and incubated in a horizontal position in the dark at room temperature and ambient humidity. After 48 h, efficacy is determined. To this end, the ticks are knocked to the base of the tube and incubated on a hotplate at 45-50° C. for not more than 5 min. Ticks which remain motionless on the base or move in such an uncoordinated manner that they are unable to deliberately avoid the heat by climbing upwards are considered to be dead or moribund.
An efficacy of 100% means that all the ticks were dead or moribund. 0% efficacy means that none of the ticks were harmed.

[8] = tested on: Myzus persicae; experiment: Myzus persicae spray test; details: foliar, 120 h, application rate 100 g/ha, Chinese cabbage leaf discs, after 5 days, read-out: efficacy
Description: Myzus persicae—Spray Test
as §3, §4, §5
Discs of Chinese cabbage leaves (Brassica pekinensis) infested by all stages of the green peach aphid (Myzus persicae) are sprayed with an active compound formulation of the desired concentration.
as §6

[9] = tested on: Phaedon cochleariae; experiment: Phaedon cochleariae spray test; details: foliar, 168 h, application rate 100 g/ha, Chinese cabbage leaf discs, after 7 days, read-out: efficacy
Description: Phaedon cochleariae—Spray Test
as §7, §4, §5
Discs of Chinese cabbage leaves (Brassica pekinensis) are sprayed with an active compound formulation of the desired concentration and, after drying, populated with larvae of the mustard beetle (Phaedon cochleariae).
After 7 days, the efficacy in % is determined. 100% means that all the beetle larvae have been killed; 0% means that no beetle larvae have been killed.

[10] = tested on: Myzus persicae; experiment: Myzus persicae spray test (MYZUPE), comparative; details: 120 h, 5 dat, read-out: % Efficacy
Description: Myzus persicae—Spray Test (MYZUPE)
as §7, §4, §5
Discs of Chinese cabbage leaves (Brassica pekinensis) infested by all stages of the green peach aphid (Myzus persicae) are sprayed with an active compound preparation of the desired concentration.
After the desired period of time, the efficacy in % is determined. 100% means that all the aphids have been killed; 0% means that no aphids have been killed.

[11] = tested on: Spodoptera frugiperda; experiment: Spodoptera frugiperda spray test (SPODFR), comparative; details: 168 h, 0.8 g of ai/ha, 7 dat, read-out: % Efficacy
Description: Spodoptera frugiperda—Spray Test (SPODFR)
as §7, §4, §5
Leaf discs of maize (Zea mays) are sprayed with an active compound formulation of the desired concentration and, after drying, populated with caterpillars of the armyworm (Spodoptera frugiperda).
After the desired period of time, the efficacy in % is determined. 100% means that all the caterpillars have been killed; 0% means that no caterpillar has been killed.

[12] = tested on: Aphis gossypii; experiment: Aphis gossypii spray test (APHIGO S); details: 144 h, 6 dat, read-out: % Efficacy
Description: Aphis gossypii—Spray Test (APHIGO S)
(§8) Solvent: 14 parts by weight of dimethylformamide
as §4
as §5, with “water. If the addition of ammonium salts or/and penetrants is required, these are each added in a concentration of 1000 ppm to the formulation solution.” for “water.”
Cotton plants (Gossypium hirsutum) heavily infested by the cotton aphid (Aphis gossypii) are sprayed with an active compound formulation of the desired concentration.
After the desired time, the kill in % is determined. 100% means that all the aphids have been killed; 0% means that no aphids have been killed.

[13] = tested on: Spodoptera frugiperda; experiment: Spodoptera frugiperda test on maize plants (SPODFR S); details: 6 dai, read-out: % Efficacy
Description: Spodoptera frugiperda Test (SPODFR S)
as §8
(§9) Emulsifier: 2 parts by weight of alkylaryl polyglycol ether
(§10) To produce a suitable active compound formulation, 1 part by weight of active compound is dissolved with the stated parts by weight of solvent and emulsifier and made up to the desired concentration with water. To produce further test concentrations, water is used for dilution. In the event that addition of ammonium salts or/and penetrants (rapeseed oil methyl ester) is required, these are each pipetted in at a concentration of 1000 ppm after the finished formulation solution has been diluted.
Maize plants (Zea mays) are sprayed with an active compound formulation of the desired concentration and, in each case after 5, 12 and 19 days, populated with 5 caterpillars (L2) of the fall armyworm (Spodoptera frugiperda).
(§11) The kill is determined 6 days after the infection. 100% means that all the caterpillars have been killed and 0% means that none of the caterpillars have been killed.

[14] = tested on: Myzus persicae; experiment: Myzus persicae spray test on bell pepper plants (MYZUPE S); details: 144 h, 6 dat, read-out: % Efficacy
Description: Myzus persicae—Spray Test (MYZUPE S)
as §8, §4
as §5, with “water. If the addition of ammonium salts or/and penetrants is required, these are each added in a concentration of 1000 ppm to the formulation solution.” for “water.”
Bell pepper plants (Capsicum annuum) severely infested with the green peach aphid (Myzus persicae) are treated by spraying with the active compound formulation in the desired concentration.
After the desired time, the kill in % is determined. 100% means that all the animals have been killed; 0% means that no animals have been killed.

[15] = tested on: Plutella xylostella; experiment: Plutella xylostella test (PLUTMA S); details: 456 h, infection 19 dat, 6 dai, read-out: % Efficacy
Description: Plutella xylostella Test (PLUTMA S)
as §8, §9, §10
Cabbage plants (Brassica oleracea var. sabauda) are sprayed with an active compound formulation of the desired concentration and, after 19 days, populated with 10 caterpillars (L2 larvae) of the diamond back moth (Plutella xylostella).
as §11

[16] = tested on: Lucilia cuprina; experiment: Lucilia cuprina test; details: application rate 100 ppm; L1 larvae; after 2 days
Description: as §2
To produce a suitable active compound formulation, 10 mg of active compound are mixed with 0.5 ml of dimethyl sulfoxide, and the concentrate is diluted with water to the desired concentration.
About 20 L1 larvae of the Australian sheep blowfly (Lucilia cuprina) are transferred into a test vessel containing minced horsemeat and the active compound formulation of the desired concentration.
After 2 days, the kill in % is determined. 100% means that all the larvae have been killed; 0% means that no larvae have been killed.

Structure (SMILES) | efficacy [1] [%] | pest or weed control at 100 ppm [2] [%] | pest or weed control at 4 ppm [5] [%] | pest or weed control at 100 g/ha [6] [%] | pest or weed control at 100 g/ha [8] [%] | Emax at 4 ppm [12] [%] | Emax at 0.16 ppm ([13]; 120 h, infection 5 dat) [%] | other results
CCS(=O)(=O)c1c(-c2nc3cc(C(F)(F)C(F)(F)F)cnc3n2C)ncc2cc(Br)ccc12 [Example I-005] | 100 | 100 | 100 | 100 | – | – | – | pest or weed control at 160 µg/well [3]: 80%; pest or weed control at 20 ppm [4]: 90%
CCS(=O)(=O)c1c(-c2nc3cc(C(F)(F)F)cnc3n2C)ncc2c(C(F)(F)F)cccc12 [Example I-032] | 100 | – | 100 | 100 | 100 | 90 | 100 | efficacy [7]: 100%; pest or weed control at 100 g/ha [9]: 100%; Emax at 4 g/ha ([10]; 4 g of ai/ha): 90%; Emax at 20 g/ha ([10]; 20 g of ai/ha): 100%; Emax at 0.8 g/ha [11]: 100%; Emax at 0.16 ppm ([13]; 288 h, infection 12 dat): 70%; Emax at 0.8 ppm ([13]; 288 h, infection 12 dat): 100%
CCS(=O)(=O)c1c(-c2nc3cc(C(F)(F)F)cnc3n2C)ncc2cc(C)ccc12 [Example I-015] | – | – | 100 | 83 | – | 100 | – | Emax at 0.8 ppm ([14]; 0.8 ppm): 25%; Emax at 4 ppm ([14]; 4 ppm): 100%
CCS(=O)(=O)c1c(-c2nc3cc(C(F)(F)F)cnc3n2C)ncc2cc(OCC(F)(F)F)ccc12 [Example I-036] | – | – | 100 | 100 | – | – | 90 | Emax at 0.16 ppm ([13]; 456 h, infection 19 dat): 70%; Emax at 0.8 ppm ([13]; 456 h, infection 19 dat): 100%; Emax at 0.16 ppm [15]: 80%
CCS(=O)(=O)c1ccc2c(S(=O)(=O)CC)c(-c3nc4cc(C(F)(F)F)cnc4n3C)ncc2c1 [Example I-034, 4,7-Bis(ethylsulfonyl)-3-[3-methyl-6-(trifluoromethyl)imidazo[4,5-b]pyridin-2-yl]isoquinoline] | 100 | 100 | 100 | 83 | 90 | – | – | efficacy (kill in %) [16]: 100%
